# Measurements: patent US7812162B2, “Enantiomers of 2′-fluoralkyl-6-nitroquipazine as serotonin transporter positron emission tomography imaging agents and antidepressant therapeutics” (The University of Montana, priority 2006, dated 2010)
# Like-named read-outs stand apart in the source and are kept apart here.
# Assays:
# SERT [1] = target: T1, SERT (Rattus norvegicus, UniProt P31652); conditions: Rat brain, [3H]paroxetine; SERT competitive binding; cited from earlier work
# [2] = target: T2, rat frontal cortical SERT, rSERT (Rattus norvegicus, UniProt P31652); assay: Competition binding assay, rat frontal cortical SERT, [3H]Paroxetine; conditions: Competitive binding, rat brain cortex homogenate, 20° C., n = 3, mean±s.e.m.
# T2 construct: rat frontal cortical SERT, rSERT; from tissue; host or cells: rat frontal cortex
# T2 sequence (P31652 whole entry): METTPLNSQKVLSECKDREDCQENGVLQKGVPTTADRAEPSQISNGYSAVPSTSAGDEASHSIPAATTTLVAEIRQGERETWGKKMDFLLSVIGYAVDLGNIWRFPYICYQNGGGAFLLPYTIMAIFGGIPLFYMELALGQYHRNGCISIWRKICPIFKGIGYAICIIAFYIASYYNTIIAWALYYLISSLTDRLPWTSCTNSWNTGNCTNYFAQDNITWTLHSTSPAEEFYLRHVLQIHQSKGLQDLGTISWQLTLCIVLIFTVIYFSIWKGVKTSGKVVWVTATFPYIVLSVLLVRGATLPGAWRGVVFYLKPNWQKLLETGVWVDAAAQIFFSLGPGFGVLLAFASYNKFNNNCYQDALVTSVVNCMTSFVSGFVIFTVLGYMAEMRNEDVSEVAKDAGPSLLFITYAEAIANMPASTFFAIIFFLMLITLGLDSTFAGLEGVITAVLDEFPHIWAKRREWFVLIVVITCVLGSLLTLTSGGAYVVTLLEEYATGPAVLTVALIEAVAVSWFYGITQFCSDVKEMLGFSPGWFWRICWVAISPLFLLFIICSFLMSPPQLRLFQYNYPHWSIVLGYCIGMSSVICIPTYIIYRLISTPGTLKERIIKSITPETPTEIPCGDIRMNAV
# Procedure: The compounds of the invention are potent (sub-nanomolar concentration) pharmacological inhibitor binding ligands of the serotonin transporter. Examples of the in vitro inhibition competitive pharmacological binding SERT potencies are shown in Table 3, where the binding constant Ki values are reported as mean±s.e.m., n=3 or greater. The binding constants were determined using an established competition assay (rat frontal cortical SERT, rSERT; [^3H]Paroxetine, 3 h incubation time at 20° C., nonspecific binding determined as the difference in the absence and presence of saturating levels of non-radioactive 6-nitroquipazine) [Gerdes 2000] which is a modified method of Habert [Habert 1985]. […] The ligands of the invention are considered to have antidepressant qualities since they effectively compete with the radiolabelled form of the known antidepressant Paroxetine ([^3H]Paroxetine) at the serotonin transporter [Tatsumi 1997, Hyttel 1994].
# [3] = target: T3, human serotonin transporter (hSERT) (Homo sapiens, UniProt P31645); assay: Inhibition of [3H]5-HT uptake into HEK-293 cells transfected with hSERT; type: cell-based; conditions: hSERT HEK-293 cells, 20° C.
# T3 construct: expressed in transfected cells; host or cells: HEK-293
# T3 sequence (P31645 whole entry): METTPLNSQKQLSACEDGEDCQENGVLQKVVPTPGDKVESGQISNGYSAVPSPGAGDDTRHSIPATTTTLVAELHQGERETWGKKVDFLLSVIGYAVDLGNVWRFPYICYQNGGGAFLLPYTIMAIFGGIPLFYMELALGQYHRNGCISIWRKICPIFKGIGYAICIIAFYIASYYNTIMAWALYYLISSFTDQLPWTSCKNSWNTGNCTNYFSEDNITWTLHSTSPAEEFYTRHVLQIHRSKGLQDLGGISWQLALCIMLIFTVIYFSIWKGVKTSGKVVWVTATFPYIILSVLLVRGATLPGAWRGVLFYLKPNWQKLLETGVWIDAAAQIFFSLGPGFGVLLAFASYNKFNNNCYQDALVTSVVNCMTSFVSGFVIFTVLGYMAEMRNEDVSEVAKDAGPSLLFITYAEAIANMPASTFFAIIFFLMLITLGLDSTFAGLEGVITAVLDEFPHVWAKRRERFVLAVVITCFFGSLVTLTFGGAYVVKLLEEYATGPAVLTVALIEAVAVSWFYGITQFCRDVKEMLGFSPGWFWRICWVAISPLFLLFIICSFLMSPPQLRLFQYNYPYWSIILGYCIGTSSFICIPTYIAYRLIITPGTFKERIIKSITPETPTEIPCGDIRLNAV
# SERT [4] = target: T1, SERT; conditions: Rat brain, [3H]citalopram; SERT competitive binding; cited from earlier work
# T1 sequence (P31652 whole entry): as the sequence (P31652 whole entry) above
SMILES,Ki [2],Ki (SERT [1]),other results
O=[N+]([O-])c1ccc2nc(N3CCNCC3)ccc2c1I [Cpd 6],–,170 pM,–
COC[C@H]1CNCCN1c1ccc2cc([N+](=O)[O-])ccc2n1 [Cpd 13R],250 ± 30 pM,–,Ki [3]: 150 pM
O=[N+]([O-])c1ccc2nc(N3CCNCC3)ccc2c1 [Cpd 5],–,160 pM,–
CC1CNCCN1c1ccc2cc([N+](=O)[O-])ccc2n1 (stereo not drawn) [Cpd 12],–,80 pM,–
O=[N+]([O-])c1ccc2nc(N3CCNCC3CO)ccc2c1 (racemic) [Cpd 14],680 ± 40 pM,–,–
O=[N+]([O-])c1ccc2nc(N3CCNCC3)ccc2c1F [Cpd 8],–,250 pM,–
O=[N+]([O-])c1ccc2nc(N3CCNCC3)c(CCCF)cc2c1 [Cpd 10],–,–,Ki (SERT [4]): 310 pM

# Now from value to molecule, other results behind:
Ki [2],SMILES,Ki (SERT [1]),other results
250 ± 80 pM,O=[N+]([O-])c1ccc2nc(N3CCNC[C@@H]3COCCCF)ccc2c1 [Cpd 2R],–,–
280 ± 90 pM,"O=[N+]([O-])c1ccc2nc(N3CCNCC3COCCCF)ccc2c1 (racemic) [Cpd 2, 2-[2-((3-Fluoropropoxy)methyl)piperazine-1-yl]-6-nitroquinoline]",–,–
1560 ± 880 pM,O=[N+]([O-])c1ccc2nc(N3CCNC[C@H]3COCCCF)ccc2c1 [Cpd 2S],–,–
420 ± 10 pM,COCC1CNCCN1c1ccc2cc([N+](=O)[O-])ccc2n1 (racemic) [Cpd 13],–,Ki [3]: 470 pM
1520 ± 100 pM,"COC[C@@H]1CNCCN1c1ccc2cc([N+](=O)[O-])ccc2n1 [Cpd 13S, (S)-(−)-2-[2-(Methoxymethyl)piperazin-1-yl]-6-nitroquinolin]",–,Ki [3]: 1660 pM
